Data as given in US20250313533A1, “QUINOLINE CARBOXYLIC ACID ESTER COMPOUND AND PREPARATION METHOD AND USE THEREOF” (priority 2019, published 2025).

Experiments:
[1] = system: pathogenic bacteria causing bacterial wilt in cassava; test: organism not typed; format: cell-based; conditions: read-out: inhibitory rate
[2] = system: stem rot in sweet potatoes; test: whole plant or invertebrate; conditions: read-out: efficacy against stem rot in sweet potatoes
black shank in potatoes = test: Living crops in vivo protective activity, potatoes (root irrigation); conditions: Solanum tuberosum, read-out: efficacy against black shank in potatoes; for pest or weed control at 5 ppm: dosage 5 ppm; for pest or weed control at 10 ppm: dosage 10 ppm
Description: Root irrigation was carried out on the potatoes for tests according to the designed concentration of the agents. The dosage for each plant was 200 mL and was kept consistent (also for the control). The black shank bacteria were inoculated on the second day after the application. The results were investigated according to the disease condition.

[3] = system: pathogenic bacteria causing bacterial angular leaf spot in cucumbers; test: In vitro bactericidal activity, bacterial angular leaf spot in cucumbers; format: cell-based, pseudomonas; conditions: read-out: inhibitory rate; for inhibition at 1 ppm: dosage 1 ppm; for inhibition at 5 ppm: dosage 5 ppm
[4] = system: indoor potted cucumber seedlings; test: Effect of improving growth and development of crops; format: in vivo; design: Rate of growth rate increase (%): concentration or dose not given beside the values; conditions: versus blank control; for Rate of chlorophyll content increase (%) / Rate of leaf area increase (%): 14 days after application; for Rate of growth rate increase (%): plant height 14 days after application; for Rate of leaf area increase (%): second leaf
Summary of the method: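 Growth effects were scored as percent increases in height growth rate, second-leaf area and chlorophyll (SPAD meter), comparing values taken before and 14 days after application.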

[5] = system: soft rot in Chinese cabbages; test: whole plant or invertebrate; conditions: 48 h, read-out: efficacy against soft rot in Chinese cabbages
[6] = system: bacterial wilt in tobacco; test: whole plant or invertebrate; conditions: Nicotiana tabacum, read-out: efficacy against bacterial wilt in tobacco
cucumber seedlings = test: Safety for plant growth after application; format: in vivo; conditions: dosage 200 ppm
Summary of the method: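 Potted cucumber seedlings grown indoors; read-outs: plant-height growth rate, chlorophyll content, leaf area.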

[7] = system: pathogenic bacteria causing stem rot in sweet potatoes; test: In vitro bactericidal activity, stem rot in sweet potatoes; format: cell-based, dikia; conditions: read-out: inhibitory rate; for inhibition at 1 ppm: dosage 1 ppm; for inhibition at 5 ppm: dosage 5 ppm
[8] = system: pathogenic bacteria causing bacterial blight in rice; test: whole plant or invertebrate; format: cell-based, xanthomonas; conditions: read-out: inhibitory rate
[9] = system: pathogenic bacteria causing bacterial wilt in tobacco; test: whole plant or invertebrate; format: cell-based, ralstonia; conditions: read-out: inhibitory rate
[10] = system: fruit blotch in watermelons; test: whole plant or invertebrate; conditions: read-out: efficacy against fruit blotch in watermelons
[11] = system: pathogenic bacteria causing black shank in potatoes; test: In vitro bactericidal activity, black shank in potatoes; format: cell-based; conditions: read-out: inhibitory rate; for inhibition at 1 ppm: dosage 1 ppm; for inhibition at 5 ppm: dosage 5 ppm
[12] = system: pathogenic bacteria causing fruit blotch in watermelons; test: In vitro bactericidal activity, fruit blotch in watermelons; format: cell-based, acidovorax; conditions: read-out: inhibitory rate; for inhibition at 1 ppm: dosage 1 ppm; for inhibition at 5 ppm: dosage 5 ppm
bacterial blight in rice = test: whole plant or invertebrate; conditions: Oryza sativa, read-out: efficacy against bacterial blight in rice
[13] = system: pathogenic bacteria causing fire blight in pears; test: In vitro bactericidal activity, fire blight in pears; format: cell-based, erwinia; conditions: Erwinia, read-out: inhibitory rate; for inhibition at 1 ppm: dosage 1 ppm; for inhibition at 5 ppm: dosage 5 ppm
[14] = system: pathogenic bacteria causing black rot in Chinese cabbages; test: In vitro bactericidal activity, black rot in Chinese cabbages; format: cell-based, xanthomonas; conditions: Xanthomonas, read-out: inhibitory rate; for inhibition at 1 ppm: dosage 1 ppm; for inhibition at 5 ppm: dosage 5 ppm

| Compound | inhibition at 1 ppm [1] [%] | inhibition at 5 ppm [1] [%] | pest or weed control at 5 ppm [2] [%] | pest or weed control at 10 ppm [2] [%] | pest or weed control at 5 ppm (black shank in potatoes) [%] | pest or weed control at 10 ppm (black shank in potatoes) [%] | inhibition at 1 ppm [3] [%] | inhibition at 5 ppm [3] [%] | Rate of chlorophyll content increase (%) [4] [%] | Rate of growth rate increase (%) [4] [%] | Rate of leaf area increase (%) [4] [%] | pest or weed control at 5 ppm [5] [%] | pest or weed control at 10 ppm [5] [%] | pest or weed control at 5 ppm [6] [%] | pest or weed control at 10 ppm [6] [%] | safety for plant growth (discoloration, necrosis, wilt, malformation) (cucumber seedlings) | inhibition at 1 ppm [7] [%] | inhibition at 5 ppm [7] [%] | inhibition at 1 ppm [8] [%] | inhibition at 5 ppm [8] [%] | other results |
| --- | --- | --- | --- | --- | --- | --- | --- | --- | --- | --- | --- | --- | --- | --- | --- | --- | --- | --- | --- | --- | --- |
| COCCOC(=O)c1cn(C2CC2)c2cc(OC(C)(C)C)c(F)cc2c1=O [Compound 287] | ≥ 90 | ≥ 90 | ≥ 90 | ≥ 90 | ≥ 90 | ≥ 90 | ≥ 90 | ≥ 90 | 13 | 10 | 10 | ≥ 90 | ≥ 90 | ≥ 90 | ≥ 90 | safe for plant growth | ≥ 90 | ≥ 90 | ≥ 90 | ≥ 90 | inhibition at 1 ppm [9]: ≥ 90%; inhibition at 5 ppm [9]: ≥ 90%; pest or weed control at 5 ppm [10]: ≥ 90%; pest or weed control at 10 ppm [10]: ≥ 90%; inhibition at 1 ppm [11]: ≥ 90%; inhibition at 5 ppm [11]: ≥ 90%; inhibition at 1 ppm [12]: ≥ 90%; inhibition at 5 ppm [12]: ≥ 90%; pest or weed control at 5 ppm (bacterial blight in rice): ≥ 90%; pest or weed control at 10 ppm (bacterial blight in rice): ≥ 90%; inhibition at 1 ppm [13]: ≥ 90%; inhibition at 5 ppm [13]: ≥ 90%; inhibition at 1 ppm [14]: ≥ 90%; inhibition at 5 ppm [14]: ≥ 90% |
| CCOCCOC(=O)c1cn(C2CC2)c2cc(Cl)c(F)cc2c1=O [Compound 153] | ≥ 90 | ≥ 90 | ≥ 90 | ≥ 90 | ≥ 90 | ≥ 90 | ≥ 90 | ≥ 90 | 14 | 15 | 13 | ≥ 90 | ≥ 90 | ≥ 90 | ≥ 90 | safe for plant growth | ≥ 90 | ≥ 90 | ≥ 90 | ≥ 90 | inhibition at 1 ppm [9]: ≥ 90%; inhibition at 5 ppm [9]: ≥ 90%; pest or weed control at 5 ppm [10]: ≥ 90%; pest or weed control at 10 ppm [10]: ≥ 90%; inhibition at 1 ppm [11]: ≥ 90%; inhibition at 5 ppm [11]: ≥ 90%; inhibition at 1 ppm [12]: ≥ 90%; inhibition at 5 ppm [12]: ≥ 90%; pest or weed control at 5 ppm (bacterial blight in rice): ≥ 90%; pest or weed control at 10 ppm (bacterial blight in rice): ≥ 90%; inhibition at 1 ppm [13]: ≥ 90%; inhibition at 5 ppm [13]: ≥ 90%; inhibition at 1 ppm [14]: ≥ 90%; inhibition at 5 ppm [14]: ≥ 90% |
| COCCOC(=O)c1cn(C2CC2)c2cc(N3CCOCC3)c(F)cc2c1=O [Compound 426, 2-methoxyethyl 1-cyclopropyl-6-fluoro-7-morpholinyl-4-oxo-1,4-dihydroquinoline-3-carboxylate] | ≥ 90 | ≥ 90 | ≥ 90 | ≥ 90 | ≥ 90 | ≥ 90 | ≥ 90 | ≥ 90 | 10 | 9 | 11 | ≥ 90 | ≥ 90 | ≥ 90 | ≥ 90 | safe for plant growth | ≥ 90 | ≥ 90 | ≥ 90 | ≥ 90 | inhibition at 1 ppm [9]: ≥ 90%; inhibition at 5 ppm [9]: ≥ 90%; pest or weed control at 5 ppm [10]: ≥ 90%; pest or weed control at 10 ppm [10]: ≥ 90%; inhibition at 1 ppm [11]: ≥ 90%; inhibition at 5 ppm [11]: ≥ 90%; inhibition at 1 ppm [12]: ≥ 90%; inhibition at 5 ppm [12]: ≥ 90%; pest or weed control at 5 ppm (bacterial blight in rice): ≥ 90%; pest or weed control at 10 ppm (bacterial blight in rice): ≥ 90%; inhibition at 1 ppm [13]: ≥ 90%; inhibition at 5 ppm [13]: ≥ 90%; inhibition at 1 ppm [14]: ≥ 90%; inhibition at 5 ppm [14]: ≥ 90% |
| COCCOC(=O)c1cn(C2CC2)c2cc(F)ccc2c1=O [Compound 195] | ≥ 90 | ≥ 90 | ≥ 90 | ≥ 90 | ≥ 90 | ≥ 90 | ≥ 90 | ≥ 90 | 12 | 7 | 9 | ≥ 90 | ≥ 90 | ≥ 90 | ≥ 90 | safe for plant growth | ≥ 90 | ≥ 90 | ≥ 90 | ≥ 90 | inhibition at 1 ppm [9]: ≥ 90%; inhibition at 5 ppm [9]: ≥ 90%; pest or weed control at 5 ppm [10]: ≥ 90%; pest or weed control at 10 ppm [10]: ≥ 90%; inhibition at 1 ppm [11]: ≥ 90%; inhibition at 5 ppm [11]: ≥ 90%; inhibition at 1 ppm [12]: ≥ 90%; inhibition at 5 ppm [12]: ≥ 90%; pest or weed control at 5 ppm (bacterial blight in rice): ≥ 90%; pest or weed control at 10 ppm (bacterial blight in rice): ≥ 90%; inhibition at 1 ppm [13]: ≥ 90%; inhibition at 5 ppm [13]: ≥ 90%; inhibition at 1 ppm [14]: ≥ 90%; inhibition at 5 ppm [14]: ≥ 90% |
